Assay results as given in patent publication US12409169B2, “Composition comprising clay mineral complex for prevention, alleviation, and treatment of inflammatory bowel disease, preparation method for composition, and method for alleviation and treatment for inflammatory bowel disease” (Korea Institute Of Geoscience And Mineral Resources, priority 2019, dated 2025).
Several values for one entry are separate records, joined by “and”; a condition that tells them apart may be missing. Equal values may be shown once. Read-outs that look alike come from different tables or passages of the source.

How the values were obtained:
[1] = pharmacokinetic analysis after oral administration in SD rats; assay type: in vivo; conditions: 10 mg/kg based on vactosertib
Method: In order to confirm a change in plasma concentration in actual oral administration of the bentonite/vactosertib complex, a pharmacokinetic analysis test was performed using SD rats of about 7 weeks of age. The existing vactosertib powder, an aqueous solution dissolved with the vactosertib powder in a pH 3 buffer solution, and the bentonite/vactosertib complex were used as samples and a dose was set to 10 mg/kg based on the drug (that is, vactosertib) amount. Each sample was orally administered in rats and then the blood was collected by time, and preprocessed to analyze a plasma drug concentration.

[2] = elution test (drug release through semi-permeable membrane); assay type: physicochemical
Method: An elution test of vactosertib was performed to confirm a change in which the vactosertib was adsorbed onto bentonite and then released. At this time, in order to predict the drug release from the upper digestive tract and the lower digestive tract, the elution was performed under different pH conditions. To this end, the test was performed by using a 0.1 N HCl solution (pH 1.2), a 50 mM acetate buffer solution (pH 4.5), and a 50 mM phosphate buffer solution (pH 7.4) as eluates, respectively. At this time, in all the eluates, Tween80 was dissolved and used at a concentration of 0.1% to impart a sufficient elution environment of vactosertib. The vactosertib powder and the bentonite/vactosertib complex were formed to a dispersion to be 1 mg/mL based on the vactosertib concentration and 0.3 mL thereof was sealed in a semi-permeable membrane and then put in 30 mL of each eluate to perform the elution. Thereafter, each eluate was collected by 0.2 mL for each predetermined time, a drug concentration was analyzed to compare elution rates.

[3] = test system: ulcerative colitis mouse model induced with DSS; assay: histopathological severity scores in ulcerative colitis mouse model induced with DSS; assay type: in vivo, C57BL/6 mice; conditions: DSS mice, Dunn's test
Method: Animal tests were performed to confirm anti-inflammatory, anti-crypt cell damage, anti-ulcer, anti-edema, and anti-fibrosis effects of a vactosertib/bentonite complex using a mouse model of ulcerative colitis as one of inflammatory bowel diseases. C57BL/6 mice were selected as test animals, and in order to induce ulcerative colitis, a cycle in which an inflammation inducing substance, DSS was added in drinking water and supplied for 7 days, and then normal drinking water was supplied for 14 days was repeated. Such an inflammation inducing cycle was repeated 3 times to induce chronic inflammation, ulcer and fibrous conditions in the large intestine. To test animal groups except for control groups, from 3 weeks after a first inflammation inducing cycle was elapsed, bentonite, vactosertib, or a vactosertib/bentonite complex was administered twice a day (10 am, 4 pm), 5 days a week, and for total 6 weeks. The bentonite per 1 kg of converted mouse weight was administered with 106.8 mg, the vactosertib was administered with 20.0 mg, and the complex was administered with 126.8 mg. At this time, as the vactosertib/bentonite complex, the complex prepared in Test Example 5 was used. For each test group used in ulcerative colitis animal tests, inflammation inducing substances, test substances, doses of the test substances, and the number of test animals were shown in Table 7 below.
C57BL/6 mice used in the test were supplied from the Orient Bio Gapyeong Center (699-13, Mokdong-ri, Buk-yeon, Gapyeong-gun, Gyeonggi-do), and about 6-week-old during obtaining. For about 7 days after obtaining, the rats were quarantined and purified and then healthy animals were used for the test. When the induced material was administered, the test animals were about 8-week-old, and 52 mice were used. The test animals were bred in the 2nd floor of Clean Animal Room, Bioscience Research Institute, Research Institute of Medical Science at Inha University, and circulated in at least 10 times/hour and bred under conditions of a temperature of 22-4° C., relative humidity of 50±20%, and illuminance of 150 to 300 Lux of lighting on for 12 hours (lighting: 08:00 to 20:00). A radiation solid feed (FeedLab GMO Free Rodent Diet GF2005) for rodents was free-taken using a feeder and water sterilized by an ultraviolet-ray flowing water sterilizer and high-pressure vapor after reverse osmosis was free-taken using a polysulfonate-made drinking water bottle (300 ml).
In order to induce ulcerative colitis, 2% DSS was added in drinking water of mice and continuously supplied for first 7 days of every test cycle (3 weeks). The test substances were orally administered 2 times a day, 5 days a week, and for a total of 6 weeks at the same time of second DSS induction (FIG. 14). […]
In order to evaluate a treatment effect of test substances on ulcerative colitis, after the end of the test, the animal was anesthetized, opened, and bled and then a histopathological test was performed for each individual. Histopathological findings were subdivided and scored into severity changes of inflammation, crypt cell damage, ulcer, edema, and fibrosis as shown in Table 8 below. […]
Statistical analysis was performed using Graphpad Prism version 8.01, and a minimum unit of significance was set to p<0.05. Since all measured histopathological indexes were nonparametric data, the indexes were represented by a median, 25% to 75% values (in the box), and minimum-maximum values (both ends) in the graph (FIGS. 15 to 20). […]

[4] = test system: interleukin 6 (IL-6); assay: immunohistochemical IL-6 staining of large intestine tissue in DSS ulcerative colitis mouse model; assay type: in vivo, C57BL/6 mice; conditions: DSS 2% mice
Method: Animal tests were performed to confirm anti-inflammatory, anti-crypt cell damage, anti-ulcer, anti-edema, and anti-fibrosis effects of a vactosertib/bentonite complex using a mouse model of ulcerative colitis as one of inflammatory bowel diseases. C57BL/6 mice were selected as test animals, and in order to induce ulcerative colitis, a cycle in which an inflammation inducing substance, DSS was added in drinking water and supplied for 7 days, and then normal drinking water was supplied for 14 days was repeated. Such an inflammation inducing cycle was repeated 3 times to induce chronic inflammation, ulcer and fibrous conditions in the large intestine. […]
In order to observe an immunohistochemical change of a large intestine tissue, a tissue fixed to a 10% neutral buffer formalin solution was sliced, attached to a coating slide, and deparaffinized, and then stained, and IHC of reacting with antibodies IL-6 (Interleukin-6), α-SMA ((α-smooth muscle actin), and TGF-β (transforming growth factor beta) on each slide was requested to an external institute (Notus) and the test was performed. In an individual-specific tissue slide, three constant zones were specified and imaged 100 times, a stained portion to the total area was measured, and a mean value was calculated (Zen 2.3 blue edition, Carl Zeiss, Germany). […]

[5] = adsorption rate of vactosertib onto bentonite; assay type: physicochemical; conditions: vactosertib 0.4 mg/ml, bentonite 0.5 mg/mL, pH 1
Method: The adsorption rates of vactosertib and bentonite according to the pH of a solvent were evaluated. At this time, considering that the vactosertib was not dissolved in neutral, but stated to be dissolved in about 1 mg/mL from pH 3, a test was performed by setting a reaction pH to pH 1, pH 2, and pH 3. First, 10 mg/mL of the vactosertib was dissolved in a 0.1 N hydrochloric acid aqueous solution and diluted with a hydrochloric acid aqueous solution or a phosphate buffer solution (pH 1: 0.1 N hydrochloric acid aqueous solution, pH 2, pH 3: phosphate buffer solution) corresponding to each pH to adjust the concentration to 1 mg/mL. […] Thereafter, a drug concentration of a supernatant obtained by centrifugation (3,000 rpm, 5 minutes) was analyzed. Through this, the drug amount adsorbed onto the bentonite was indirectly calculated as shown in Equation 1 by removing the remaining drug amount in the supernatant from the entirely applied drug (vactosertib) to calculate an adsorption rate. […] In addition, a difference in adsorption rate according to the concentration of vactosertib was measured. […] In addition, a difference in adsorption rate according to an absolute concentration was measured.

| Structure (SMILES) | AUCinf [1] [µg·min/mL] | AUClast [1] [µg·min/mL] | Cmax [1] [ng/mL] | Tmax [1] [min] | Tmax ([1]; listed as vactosertib aqueous solution) | half-life ([1]; SD, rat, plasma, po, 10 mg/kg) [min] | Cmax ([1]; SD, rat, plasma, po, 10 mg/kg, read-out: maximum plasma concentration Cmax) [ng/mL] | t1/2 [1] [min] | elution rate ([2]; 0.1 N HCl solution (pH 1.2), 0.1% Tween80) | elution rate ([2]; at a higher pH than pH 1.2) | median of inflammation index compared with positive control group (G2) ([3]; FIG. 15) | median of crypt cell damage index compared with positive control group (G2) ([3]; FIG. 16) | median of ulcer index compared with positive control group (G2) ([3]; FIG. 17) | median of fibrosis index compared with positive control group (G2) ([3]; FIG. 19) | median of summed severity scores (except fibrosis) compared with positive control group (G2) ([3]; FIG. 20) | reduction of IL-6 staining area as compared with G2 group [4] [%] | Adsorption rate [5] [%] |
| --- | --- | --- | --- | --- | --- | --- | --- | --- | --- | --- | --- | --- | --- | --- | --- | --- | --- |
| Cc1cccc(-c2[nH]c(CNc3ccccc3F)nc2-c2ccc3ncnn3c2)n1 [Vactosertib aqueaous solution] | 111.97 ± 33.28 | 111.73 ± 33.05 | 2770 ± 550 | 15 ± 0 | 15 min and 15 ± 0 min | 45.9 ± 6.84 | 2770 ± 550 | – | – | – | – | – | – | – | – | – | – |
| Cc1cccc(-c2[nH]c(CNc3ccccc3F)nc2-c2ccc3ncnn3c2)n1 [Vactosertib powder] | 45.46 ± 27.67 | 44.65 ± 28.60 | 610 ± 570 | 67.5 ± 75 | – | – | – | 51.96 ± 21.93 | rapidly eluted | significantly decreased | – | – | – | – | – | – | – |
| Cc1cccc(-c2[nH]c(CNc3ccccc3F)nc2-c2ccc3ncnn3c2)n1 [vactosertib, N-((4-([1,2,4]triazolo[1,5-a]pyridine-6-yl)-5-(6-methylpyridin-2-yl)-1H-imidazol-2-yl)methy 1)-2-fluoroaniline] | – | – | – | – | – | – | – | – | – | – | slightly low | low in a median of a crypt cell damage index, but had no statistical significance | low in a median of an ulcer index, but had no statistical significance | slightly low | low in a median of an ulcer index, but had no statistical significance | 23.0 | 28.0 ± 0.8 |
